The source made the active and inactive calls. No cut-off for these calls is given here.
Columns and labels:
[1] = test system: Mus musculus; test: Compound was tested intraperitoneally against P388 acute lymphocytic leukemia in mice at a dose 0.75 mg/kg; type: functional; details: route intraperitoneal
[2] = test system: Mus musculus; test: Compound was tested intraperitoneally against P388 acute lymphocytic leukemia in mice; NA means inactive; type: functional, organism-based
[3] = test system: Mus musculus; test: Compound was tested intraperitoneally against P388 acute lymphocytic leukemia in mice at a dose 100,50,25,12.5,6.25,3.72,1.56 mg/kg; type: functional

| Structure (SMILES) | T/C [2] | T/C [3] | other results |
| --- | --- | --- | --- |
| CC(=O)[C@]1(O)Cc2c(O)c3c(c(O)c2[C@@H](OC2CC(N)C(O)C(C)O2)C1)C(=O)c1ccccc1C3=O (stereo not given in full) | – | – | T/C [1]: 160 |
| COc1ccc(OC)c2c1CN(C(C)=O)CC2O (stereo not given) | inactive | – | – |
| CC(=O)N1Cc2c(O)c3c(c(O)c2[C@@H](OC2C[C@H](NC(=O)C(F)(F)F)[C@H](O)[C@H](C)O2)C1)C(=O)c1ccccc1C3=O (stereo not given in full) | – | 105 | – |
| COc1ccc(OC)c(CNCC(OC)OC)c1 | inactive | – | – |
| CC(=O)N1Cc2c(O)c3c(c(O)c2[C@H](OC2C[C@H](NC(=O)C(F)(F)F)[C@H](O)[C@H](C)O2)C1)C(=O)c1ccccc1C3=O (stereo not given in full) | – | 105 | – |
